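All cell lines were grown in 96-well plates and treated with compound for 48 hours. GI50 is the concentration that inhibits growth by half. TGI: total growth inhibition.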
How the values were obtained:
Assay in all cases: NCI-60 cell line screen, 48 h
[1] = tested on: HT29 colon
[2] = tested on: MALME-3M melanoma
[3] = tested on: ACHN renal
[4] = tested on: OVCAR-4 ovarian
[5] = tested on: SNB-19 CNS
[6] = tested on: 786-0 renal
[7] = tested on: NCI/ADR-RES ovarian
[8] = tested on: SN12C renal
[9] = tested on: RXF 393 renal
[10] = tested on: A498 renal
[11] = tested on: DU-145 prostate
[12] = tested on: SF-295 CNS
[13] = tested on: OVCAR-5 ovarian
[14] = tested on: SR leukemia
[15] = tested on: K-562 leukemia
[16] = tested on: NCI-H522 lung
[17] = tested on: NCI-H460 lung
[18] = tested on: EKVX NSCLC
[19] = tested on: IGROV1 ovarian
[20] = tested on: MDA-MB-231 breast
[21] = tested on: UACC-257 melanoma
[22] = tested on: COLO 205 colon
[23] = tested on: OVCAR-3 ovarian
[24] = tested on: SF-539 CNS
[25] = tested on: NCI-H226 lung
[26] = tested on: HOP-62 NSCLC
[27] = tested on: SF-268 CNS
[28] = tested on: HCT-116 colon
[29] = tested on: MDA-MB-435
[30] = tested on: MOLT-4 leukemia
[31] = tested on: T-47D breast
[32] = tested on: SK-MEL-28 melanoma
[33] = tested on: SK-MEL-2 melanoma
[34] = tested on: SK-OV-3 ovarian
[35] = tested on: MCF7 breast
[36] = tested on: HL-60(TB) leukemia
[37] = tested on: SW-620 colon
[38] = tested on: A549 NSCLC
[39] = tested on: CAKI-1 renal
[40] = tested on: KM12 colon
[41] = tested on: LOX IMVI melanoma
[42] = tested on: HCT-15 colon
[43] = tested on: TK-10 renal
[44] = tested on: BT-549 breast
[45] = tested on: SK-MEL-5 melanoma
[46] = tested on: UO-31 renal
[47] = tested on: UACC-62 melanoma
[48] = tested on: CCRF-CEM leukemia
[49] = tested on: SNB-75 CNS
[50] = tested on: HS 578T breast
[51] = tested on: M14 melanoma
[52] = tested on: OVCAR-8 ovarian
[53] = tested on: RPMI-8226 leukemia
[54] = tested on: U251 CNS
[55] = tested on: PC-3 prostate
[56] = tested on: HOP-92 NSCLC

Compound: CC(C)(C)c1cc(-c2nc3c(F)c(F)c(F)c(F)c3[nH]2)cc(C(C)(C)C)c1O
- GI50 [1]: > 100 µM
- TGI [1]: > 100 µM
- GI50 [2]: > 100 µM
- TGI [2]: > 100 µM
- GI50 [3]: > 100 µM
- TGI [3]: > 100 µM
- GI50 [4]: > 100 µM
- TGI [4]: > 100 µM
- GI50 [5]: > 100 µM
- TGI [5]: > 100 µM
- GI50 [6]: > 100 µM
- TGI [6]: > 100 µM
- GI50 [7]: > 100 µM
- TGI [7]: > 100 µM
- GI50 [8]: > 100 µM
- TGI [8]: > 100 µM
- GI50 [9]: > 100 µM
- TGI [9]: > 100 µM
- GI50 [10]: > 100 µM
- TGI [10]: > 100 µM
- GI50 [11]: > 100 µM
- TGI [11]: > 100 µM
- GI50 [12]: > 100 µM
- TGI [12]: > 100 µM
- GI50 [13]: > 100 µM
- TGI [13]: > 100 µM
- GI50 [14]: 38 µM
- TGI [14]: > 100 µM
- GI50 [15]: > 100 µM
- TGI [15]: > 100 µM
- GI50 [16]: > 100 µM
- TGI [16]: > 100 µM
- GI50 [17]: > 100 µM
- TGI [17]: > 100 µM
- GI50 [18]: > 100 µM
- TGI [18]: > 100 µM
- GI50 [19]: > 100 µM
- TGI [19]: > 100 µM
- GI50 [20]: > 100 µM
- TGI [20]: > 100 µM
- GI50 [21]: > 100 µM
- TGI [21]: > 100 µM
- GI50 [22]: > 100 µM
- TGI [22]: > 100 µM
- GI50 [23]: > 100 µM
- TGI [23]: > 100 µM
- GI50 [24]: > 100 µM
- TGI [24]: > 100 µM
- GI50 [25]: > 100 µM
- TGI [25]: > 100 µM
- GI50 [26]: > 100 µM
- TGI [26]: > 100 µM
- GI50 [27]: > 100 µM
- TGI [27]: > 100 µM
- GI50 [28]: > 100 µM
- TGI [28]: > 100 µM
- GI50 [29]: > 100 µM
- TGI [29]: > 100 µM
- GI50 [30]: > 100 µM
- TGI [30]: > 100 µM
- GI50 [31]: > 100 µM
- TGI [31]: > 100 µM
- GI50 [32]: > 100 µM
- TGI [32]: > 100 µM
- GI50 [33]: > 100 µM
- TGI [33]: > 100 µM
- GI50 [34]: > 100 µM
- TGI [34]: > 100 µM
- GI50 [35]: > 100 µM
- TGI [35]: > 100 µM
- GI50 [36]: > 100 µM
- TGI [36]: > 100 µM
- GI50 [37]: > 100 µM
- TGI [37]: > 100 µM
- GI50 [38]: > 100 µM
- TGI [38]: > 100 µM
- GI50 [39]: > 100 µM
- TGI [39]: > 100 µM
- GI50 [40]: > 100 µM
- TGI [40]: > 100 µM
- GI50 [41]: > 100 µM
- TGI [41]: > 100 µM
- GI50 [42]: > 100 µM
- TGI [42]: > 100 µM
- GI50 [43]: > 100 µM
- TGI [43]: > 100 µM
- GI50 [44]: > 100 µM
- TGI [44]: > 100 µM
- GI50 [45]: > 100 µM
- TGI [45]: > 100 µM
- GI50 [46]: > 100 µM
- TGI [46]: > 100 µM
- GI50 [47]: > 100 µM
- TGI [47]: > 100 µM
- GI50 [48]: > 100 µM
- TGI [48]: > 100 µM
- GI50 [49]: > 100 µM
- TGI [49]: > 100 µM
- GI50 [50]: > 100 µM
- TGI [50]: > 100 µM
- GI50 [51]: > 100 µM
- TGI [51]: > 100 µM
- GI50 [52]: > 100 µM
- TGI [52]: > 100 µM
- GI50 [53]: > 100 µM
- TGI [53]: > 100 µM
- GI50 [54]: > 100 µM
- TGI [54]: > 100 µM
- GI50 [55]: > 100 µM
- TGI [55]: > 100 µM
- GI50 [56]: > 100 µM
- TGI [56]: > 100 µM

Source: PubChem BioAssay (NCI)
